Assay results from US20250344734A1, “UNSATURATED FATTY ACIDS AND THEIR USE TO MODIFY TASTE” (Firmenich Incorporated, priority 2022, published 2025).

Key:
Format in all cases: cell-based
[1] = target: T1, T2R65 (TAS2R19) (Homo sapiens, UniProt P59542); assay: FLIPR calcium assay, block of bitter agonist response, T2R65; conditions: unsaturated fatty acid concentration of 200 µM, cells stimulated with known bitter agonist
T1 construct: expressed in transfected cells; host or cells: cells expressing a promiscuous G protein (e.g., G16g44)
T1 sequence (P59542 1-299): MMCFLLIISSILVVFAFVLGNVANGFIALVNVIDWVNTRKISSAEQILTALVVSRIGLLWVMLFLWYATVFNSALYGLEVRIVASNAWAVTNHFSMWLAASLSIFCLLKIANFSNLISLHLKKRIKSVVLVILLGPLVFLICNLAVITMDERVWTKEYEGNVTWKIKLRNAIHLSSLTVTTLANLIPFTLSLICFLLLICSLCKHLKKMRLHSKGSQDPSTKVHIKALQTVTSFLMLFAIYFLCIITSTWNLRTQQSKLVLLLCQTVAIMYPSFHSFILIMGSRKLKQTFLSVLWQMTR
Experimental: (§1) Cells expressing a promiscuous […] (e.g., G16g44) were transfected with vectors encoding 18 functional bitter receptor cDNAs, with one receptor per transfection. The cells were transfected directly in 384-well format high-density plates and incubated for 28 hours. Later, cells were loaded with the Ca-specific dye Fluo4-AM. After an incubation of 60 minutes, excess dye is washed off, and cells are stimulated with a known bitter agonist for each receptor and various unsaturated fatty acids. Changes in intracellular fluorescence are recorded using a FLIPR instrument. Bitter antagonists and corresponding receptors are identified based on percentage inhibition of agonist's activity on a given receptor.
(§2) The above protocol was carried out using 16 different unsaturated fatty acids. A particular T2R receptor was identified as being antagonized by a particular unsaturated fatty acid if it triggered a >25% block of agonist's cellular response at 200 μM concentration of unsaturated fatty acid. […] Table 2 indicates the sixteen (16) compounds tested by their compound number from Table 1 above. The 18 bitter taste receptors screened are the human bitter taste receptors we named. […]

[2] = target: T2, T2R03 (TAS2R03) (Homo sapiens, UniProt Q9NYW6); assay: FLIPR calcium assay, block of bitter agonist response, T2R03; conditions: unsaturated fatty acid concentration of 200 µM, cells stimulated with known bitter agonist
T2 construct: expressed in transfected cells; host or cells: cells expressing a promiscuous G protein (e.g., G16g44)
T2 sequence (Q9NYW6 1-316): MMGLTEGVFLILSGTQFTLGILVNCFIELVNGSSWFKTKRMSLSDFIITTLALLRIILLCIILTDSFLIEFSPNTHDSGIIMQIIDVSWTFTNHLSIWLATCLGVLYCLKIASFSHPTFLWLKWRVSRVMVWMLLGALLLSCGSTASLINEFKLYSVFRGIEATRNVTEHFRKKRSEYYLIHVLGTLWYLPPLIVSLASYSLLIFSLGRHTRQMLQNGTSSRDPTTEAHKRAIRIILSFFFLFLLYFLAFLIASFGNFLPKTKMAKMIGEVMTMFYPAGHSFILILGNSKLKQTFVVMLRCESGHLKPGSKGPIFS
Experimental: as §1, §2

[3] = target: T3, T2R09 (TAS2R09) (Homo sapiens, UniProt Q9NYW1); assay: FLIPR calcium assay, block of bitter agonist response, T2R09; conditions: unsaturated fatty acid concentration of 200 µM, cells stimulated with known bitter agonist
T3 construct: expressed in transfected cells; host or cells: cells expressing a promiscuous G protein (e.g., G16g44)
T3 sequence (Q9NYW1 1-312): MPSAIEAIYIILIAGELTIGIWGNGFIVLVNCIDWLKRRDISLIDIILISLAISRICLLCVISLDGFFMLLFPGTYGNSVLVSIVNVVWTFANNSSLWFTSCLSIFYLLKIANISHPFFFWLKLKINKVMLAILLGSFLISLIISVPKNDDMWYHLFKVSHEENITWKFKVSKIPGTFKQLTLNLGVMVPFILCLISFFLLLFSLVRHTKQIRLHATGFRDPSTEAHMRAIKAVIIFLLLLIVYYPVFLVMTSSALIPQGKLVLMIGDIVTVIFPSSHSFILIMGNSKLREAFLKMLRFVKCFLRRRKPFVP
Experimental: as §1, §2

[4] = target: T4, T2R75 (TAS2R46) (Homo sapiens, UniProt P59540); assay: FLIPR calcium assay, block of bitter agonist response, T2R75; conditions: unsaturated fatty acid concentration of 200 µM, cells stimulated with known bitter agonist
T4 construct: expressed in transfected cells; host or cells: cells expressing a promiscuous G protein (e.g., G16g44)
T4 sequence (P59540 1-309): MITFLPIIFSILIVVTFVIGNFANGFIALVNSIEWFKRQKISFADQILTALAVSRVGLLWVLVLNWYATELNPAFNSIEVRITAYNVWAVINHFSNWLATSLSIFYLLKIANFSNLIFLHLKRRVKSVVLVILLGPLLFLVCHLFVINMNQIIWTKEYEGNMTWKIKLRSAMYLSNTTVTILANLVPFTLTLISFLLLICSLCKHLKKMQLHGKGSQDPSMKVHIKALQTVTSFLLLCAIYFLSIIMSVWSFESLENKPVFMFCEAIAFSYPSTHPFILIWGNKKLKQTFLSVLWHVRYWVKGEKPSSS
Experimental: as §1
(§3) The above protocol was carried out using 16 different unsaturated fatty acids. A particular T2R receptor was identified as being antagonized by a particular unsaturated fatty acid if it triggered a >25% block of agonist's cellular response at 200 μM concentration of unsaturated fatty acid. […] Table 2 indicates the sixteen (16) compounds tested by their compound number from Table 1 above. The 18 bitter taste receptors screened are the human bitter taste receptors we named. T2R01 (TAS2R01), T2R03 (TAS2R03), T2R04 (TAS2R04), T2R07 (TAS2R07), T2R08 (TAS2R08), T2R09 (TAS2R09), T2R10 (TAS2R10), T2R13 (TAS2R13), T2R14 (TAS2R14), T2R16 (TAS2R16), T2R54 (TAS2R39, T2R61 (TAS2R43), T2R63 (TA2R20), T2R64 (TAS2R31), T2R65 (TAS2R19), T2R67 (TAS2R50), T2R71 (TAS2R41), and T2R75 (TAS2R46). The corresponding IUPHAR nomenclature for each receptor is given in parenthesis. In Table 2, these receptors are identified by the last two digits. For example, T2R01 is indicated as 01. Table 2 reports the percentage block of cellular response over baseline at an unsaturated fatty acid concentration of 200 µM.

[5] = target: T5, T2R10 (TAS2R10) (Homo sapiens, UniProt Q9NYW0); assay: FLIPR calcium assay, block of bitter agonist response, T2R10; conditions: unsaturated fatty acid concentration of 200 µM, cells stimulated with known bitter agonist, read-out: percentage block of cellular response over baseline, 10
T5 construct: expressed in transfected cells; host or cells: cells expressing a promiscuous G protein (e.g., G16g44)
T5 sequence (Q9NYW0 1-307): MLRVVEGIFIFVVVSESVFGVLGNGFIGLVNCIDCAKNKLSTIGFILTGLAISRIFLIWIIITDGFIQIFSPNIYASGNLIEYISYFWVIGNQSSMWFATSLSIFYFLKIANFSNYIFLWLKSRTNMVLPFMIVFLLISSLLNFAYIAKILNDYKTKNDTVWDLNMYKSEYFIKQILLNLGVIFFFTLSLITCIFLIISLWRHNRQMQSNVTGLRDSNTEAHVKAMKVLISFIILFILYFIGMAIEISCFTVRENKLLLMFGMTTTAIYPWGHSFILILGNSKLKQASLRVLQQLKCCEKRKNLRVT
Experimental: as §1, §3

percentage block of cellular response over baseline, 65 [1]: >35%
percentage block of cellular response over baseline, 03 [2]: >45%
percentage block of cellular response over baseline, 09 [3]: 30%
percentage block of cellular response over baseline, 75 [4]: 50%
inhibition at 200 µM [5]: > 65%
Compound: CC(C)=CCC/C(C)=C/C(=O)O [Compound 129]
